In the supplement of paper PMC11208160:

Assay: recombinant barcode read abundance after kanamycin selection (control-corrected) (log10(CPM+1)); higher = more efficient recombination; sequences stand for … in AGTGCAGAGAAAATCGGCCAGTTTTCTCTGCCTGCAGTCCGCATGCCGT…ATTTATGCAGCGGACTGCCTTTCTCCCAAAGTGATAAACCGGACAGTATCATGGACCGGTTTTCCCGGTAATCCGTATTTGCAAGGTTGGTTTCACT; site = the 11-nt target
Procedure: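 Same pooled E. coli target screen (IS621 bridge recombinase, kanamycin selection, control-corrected CPM, mean of 2 biological replicates). Here the two core-binding nucleotides of the LTG and RTG of the bridge RNA target-binding loop are mutated. Target and donor CT cores are held constant, and the other 9 guide positions match the target. The target is read from the library oligo sequence. Molecule = full bridge RNA written as DNA: nt 1-80 from the library oligo, rest WT scaffold.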
For “AGGCGGGCTTGGGTTCTAACCTGTTGCGGAG [AGGCGGGCTCC_LTGcore_CT_RTGcore_CT] (site AGGCGGGCTCC) (LTG core: CT, RTG core: CT)”, the “recombinant barcode read abundance (log10)” value was 1.66. For “AGGCGGGGCTGGGTTCTAACCTGTTGCGGGC [AGGCGGGCTCC_LTGcore_GC_RTGcore_GC] (site AGGCGGGCTCC) (LTG core: GC, RTG core: GC)”, the “recombinant barcode read abundance (log10)” value was 0.0608. With “AGGCGGGTGTGGGTTCTAACCTGTTGCGGAG [AGGCGGGCTCC_LTGcore_TG_RTGcore_CT] (site AGGCGGGCTCC) (LTG core: TG, RTG core: CT)” the “recombinant barcode read abundance (log10)” value was 0.159. In the case of “AGGCGGTAGTGGGTTCTAACCTGTTGCTTAG [AGGCGGTCTAA_LTGcore_AG_RTGcore_CT] (site AGGCGGTCTAA) (LTG core: AG, RTG core: CT)”, the “recombinant barcode read abundance (log10)” value is reported as 0.187. For “AGGCGGTAGTGGGTTCTAACCTGTTGCTTCT [AGGCGGTCTAA_LTGcore_AG_RTGcore_AG] (site AGGCGGTCTAA) (LTG core: AG, RTG core: AG)”, the “recombinant barcode read abundance (log10)” value was 0.197. In the case of “AGGCGGTCTTGGGTTCTAACCTGTTGCTTAG [AGGCGGTCTAA_LTGcore_CT_RTGcore_CT] (site AGGCGGTCTAA) (LTG core: CT, RTG core: CT)”, the “recombinant barcode read abundance (log10)” value is reported as 2.29. For “AGGCGGTCTTGGGTTCTAACCTGTTGCTTAT [AGGCGGTCTAA_LTGcore_CT_RTGcore_AT] (site AGGCGGTCTAA) (LTG core: CT, RTG core: AT)”, the “recombinant barcode read abundance (log10)” value was 0.144. In the case of “AGGCGGTCTTGGGTTCTAACCTGTTGCTTCT [AGGCGGTCTAA_LTGcore_CT_RTGcore_AG] (site AGGCGGTCTAA) (LTG core: CT, RTG core: AG)”, the “recombinant barcode read abundance (log10)” value is reported as 0.284. In the case of “AGGCGGTCTTGGGTTCTAACCTGTTGCTTTC [AGGCGGTCTAA_LTGcore_CT_RTGcore_GA] (site AGGCGGTCTAA) (LTG core: CT, RTG core: GA)”, the “recombinant barcode read abundance (log10)” value is reported as 0.389. For “AGGCGGTCTTGGGTTCTAACCTGTTGCTTTG [AGGCGGTCTAA_LTGcore_CT_RTGcore_CA] (site AGGCGGTCTAA) (LTG core: CT, RTG core: CA)”, the “recombinant barcode read abundance (log10)” value was 0.0581. In the case of “AGGCGGTGCTGGGTTCTAACCTGTTGCTTGC [AGGCGGTCTAA_LTGcore_GC_RTGcore_GC] (site AGGCGGTCTAA) (LTG core: GC, RTG core: GC)”, the “recombinant barcode read abundance (log10)” value is reported as 0.104. For “AGGCGGTGGTGGGTTCTAACCTGTTGCTTAG [AGGCGGTCTAA_LTGcore_GG_RTGcore_CT] (site AGGCGGTCTAA) (LTG core: GG, RTG core: CT)”, the “recombinant barcode read abundance (log10)” value was 0.074. With “AGGCGGTGGTGGGTTCTAACCTGTTGCTTCC [AGGCGGTCTAA_LTGcore_GG_RTGcore_GG] (site AGGCGGTCTAA) (LTG core: GG, RTG core: GG)” the “recombinant barcode read abundance (log10)” value was 0.0144. For “AGGCGGTTGTGGGTTCTAACCTGTTGCTTCA [AGGCGGTCTAA_LTGcore_TG_RTGcore_TG] (site AGGCGGTCTAA) (LTG core: TG, RTG core: TG)”, the “recombinant barcode read abundance (log10)” value was 0.0951. With “AGTCTTAAATGGGTTCTAACCTGTTGCCATT [AGTCTTACTTG_LTGcore_AA_RTGcore_AA] (site AGTCTTACTTG) (LTG core: AA, RTG core: AA)” the “recombinant barcode read abundance (log10)” value was 0.0761. For “AGTCTTACATGGGTTCTAACCTGTTGCCATG [AGTCTTACTTG_LTGcore_CA_RTGcore_CA] (site AGTCTTACTTG) (LTG core: CA, RTG core: CA)”, the “recombinant barcode read abundance (log10)” value was 0.21. In the case of “AGTCTTACGTGGGTTCTAACCTGTTGCCACG [AGTCTTACTTG_LTGcore_CG_RTGcore_CG] (site AGTCTTACTTG) (LTG core: CG, RTG core: CG)”, the “recombinant barcode read abundance (log10)” value is reported as 0.213. In the case of “AGTCTTACTTGGGTTCTAACCTGTTGCCAAG [AGTCTTACTTG_LTGcore_CT_RTGcore_CT] (site AGTCTTACTTG) (LTG core: CT, RTG core: CT)”, the “recombinant barcode read abundance (log10)” value is reported as 0.0171. In the case of “AGTCTTACTTGGGTTCTAACCTGTTGCCAAT [AGTCTTACTTG_LTGcore_CT_RTGcore_AT] (site AGTCTTACTTG) (LTG core: CT, RTG core: AT)”, the “recombinant barcode read abundance (log10)” value is reported as 0.144. In the case of “AGTCTTACTTGGGTTCTAACCTGTTGCCACC [AGTCTTACTTG_LTGcore_CT_RTGcore_GG] (site AGTCTTACTTG) (LTG core: CT, RTG core: GG)”, the “recombinant barcode read abundance (log10)” value is reported as 0.0199. For “AGTCTTACTTGGGTTCTAACCTGTTGCCAGA [AGTCTTACTTG_LTGcore_CT_RTGcore_TC] (site AGTCTTACTTG) (LTG core: CT, RTG core: TC)”, the “recombinant barcode read abundance (log10)” value was 0.0445. For “AGTCTTACTTGGGTTCTAACCTGTTGCCATA [AGTCTTACTTG_LTGcore_CT_RTGcore_TA] (site AGTCTTACTTG) (LTG core: CT, RTG core: TA)”, the “recombinant barcode read abundance (log10)” value was 0.136. With “AGTCTTACTTGGGTTCTAACCTGTTGCCATC [AGTCTTACTTG_LTGcore_CT_RTGcore_GA] (site AGTCTTACTTG) (LTG core: CT, RTG core: GA)” the “recombinant barcode read abundance (log10)” value was 0.155. In the case of “AGTCTTACTTGGGTTCTAACCTGTTGCCATT [AGTCTTACTTG_LTGcore_CT_RTGcore_AA] (site AGTCTTACTTG) (LTG core: CT, RTG core: AA)”, the “recombinant barcode read abundance (log10)” value is reported as 0.196. For “AGTCTTAGCTGGGTTCTAACCTGTTGCCAGC [AGTCTTACTTG_LTGcore_GC_RTGcore_GC] (site AGTCTTACTTG) (LTG core: GC, RTG core: GC)”, the “recombinant barcode read abundance (log10)” value was 0.197. With “AGTCTTAGGTGGGTTCTAACCTGTTGCCACC [AGTCTTACTTG_LTGcore_GG_RTGcore_GG] (site AGTCTTACTTG) (LTG core: GG, RTG core: GG)” the “recombinant barcode read abundance (log10)” value was 0.274. For “AGTCTTATATGGGTTCTAACCTGTTGCCATA [AGTCTTACTTG_LTGcore_TA_RTGcore_TA] (site AGTCTTACTTG) (LTG core: TA, RTG core: TA)”, the “recombinant barcode read abundance (log10)” value was 0.153. For “AGTCTTATTTGGGTTCTAACCTGTTGCCAAG [AGTCTTACTTG_LTGcore_TT_RTGcore_CT] (site AGTCTTACTTG) (LTG core: TT, RTG core: CT)”, the “recombinant barcode read abundance (log10)” value was 0.137. With “ATGCTTTAGTGGGTTCTAACCTGTTGCCTAG [ATGCTTTCTAG_LTGcore_AG_RTGcore_CT] (site ATGCTTTCTAG) (LTG core: AG, RTG core: CT)” the “recombinant barcode read abundance (log10)” value was 0.0782. For “ATGCTTTCCTGGGTTCTAACCTGTTGCCTAG [ATGCTTTCTAG_LTGcore_CC_RTGcore_CT] (site ATGCTTTCTAG) (LTG core: CC, RTG core: CT)”, the “recombinant barcode read abundance (log10)” value was 0.0734. For “ATGCTTTCCTGGGTTCTAACCTGTTGCCTGG [ATGCTTTCTAG_LTGcore_CC_RTGcore_CC] (site ATGCTTTCTAG) (LTG core: CC, RTG core: CC)”, the “recombinant barcode read abundance (log10)” value was 0.0978. In the case of “ATGCTTTCGTGGGTTCTAACCTGTTGCCTAG [ATGCTTTCTAG_LTGcore_CG_RTGcore_CT] (site ATGCTTTCTAG) (LTG core: CG, RTG core: CT)”, the “recombinant barcode read abundance (log10)” value is reported as 0.0216. In the case of “ATGCTTTCTTGGGTTCTAACCTGTTGCCTAC [ATGCTTTCTAG_LTGcore_CT_RTGcore_GT] (site ATGCTTTCTAG) (LTG core: CT, RTG core: GT)”, the “recombinant barcode read abundance (log10)” value is reported as 0.191. For “ATGCTTTCTTGGGTTCTAACCTGTTGCCTTG [ATGCTTTCTAG_LTGcore_CT_RTGcore_CA] (site ATGCTTTCTAG) (LTG core: CT, RTG core: CA)”, the “recombinant barcode read abundance (log10)” value was 0.0598. In the case of “ATGCTTTGATGGGTTCTAACCTGTTGCCTAG [ATGCTTTCTAG_LTGcore_GA_RTGcore_CT] (site ATGCTTTCTAG) (LTG core: GA, RTG core: CT)”, the “recombinant barcode read abundance (log10)” value is reported as 0.229. For “ATGCTTTGATGGGTTCTAACCTGTTGCCTTC [ATGCTTTCTAG_LTGcore_GA_RTGcore_GA] (site ATGCTTTCTAG) (LTG core: GA, RTG core: GA)”, the “recombinant barcode read abundance (log10)” value was 0.0368. With “ATGCTTTGCTGGGTTCTAACCTGTTGCCTGC [ATGCTTTCTAG_LTGcore_GC_RTGcore_GC] (site ATGCTTTCTAG) (LTG core: GC, RTG core: GC)” the “recombinant barcode read abundance (log10)” value was 0.0848. With “ATGCTTTTATGGGTTCTAACCTGTTGCCTAG [ATGCTTTCTAG_LTGcore_TA_RTGcore_CT] (site ATGCTTTCTAG) (LTG core: TA, RTG core: CT)” the “recombinant barcode read abundance (log10)” value was 0.238. With “ATGCTTTTATGGGTTCTAACCTGTTGCCTTA [ATGCTTTCTAG_LTGcore_TA_RTGcore_TA] (site ATGCTTTCTAG) (LTG core: TA, RTG core: TA)” the “recombinant barcode read abundance (log10)” value was 0.232. With “ATGCTTTTGTGGGTTCTAACCTGTTGCCTAG [ATGCTTTCTAG_LTGcore_TG_RTGcore_CT] (site ATGCTTTCTAG) (LTG core: TG, RTG core: CT)” the “recombinant barcode read abundance (log10)” value was 0.0287. In the case of “ATGCTTTTTTGGGTTCTAACCTGTTGCCTAA [ATGCTTTCTAG_LTGcore_TT_RTGcore_TT] (site ATGCTTTCTAG) (LTG core: TT, RTG core: TT)”, the “recombinant barcode read abundance (log10)” value is reported as 0.0151. With “ATGTCCCAGTGGGTTCTAACCTGTTGCTCCT [ATGTCCCCTGA_LTGcore_AG_RTGcore_AG] (site ATGTCCCCTGA) (LTG core: AG, RTG core: AG)” the “recombinant barcode read abundance (log10)” value was 0.0318. In the case of “ATGTCCCCGTGGGTTCTAACCTGTTGCTCCG [ATGTCCCCTGA_LTGcore_CG_RTGcore_CG] (site ATGTCCCCTGA) (LTG core: CG, RTG core: CG)”, the “recombinant barcode read abundance (log10)” value is reported as 0.163. For “ATGTCCCCTTGGGTTCTAACCTGTTGCTCAC [ATGTCCCCTGA_LTGcore_CT_RTGcore_GT] (site ATGTCCCCTGA) (LTG core: CT, RTG core: GT)”, the “recombinant barcode read abundance (log10)” value was 0.0456.
